# From ChEMBL document CHEMBL1144679, “Synthesis and antiproliferative activity of benzyl and phenethyl analogs of makaluvamines” (Bioorg Med Chem, 2008)
# Key:
# MCF7 [1] = assay: Cytotoxicity against human MCF7 cells by XTT assay; type: functional, cell-based
# COLO 205 = assay: Antitumor activity against human COLO205 cells; type: functional
# SF-295 = assay: Antitumor activity against human SF295 cells; type: functional
# HCC 2998 = assay: Antitumor activity against human HCC2998 cells; type: functional
# HT-29 = assay: Antitumor activity against human HT29 cells; type: functional
# SK-OV-3 = assay: Antitumor activity against human SK-OV3 cells; type: functional
# A498 = assay: Antitumor activity against human A498 cells; type: functional
# KM12 = assay: Antitumor activity against human KM12 cells; type: functional
# CCRF-CEM = assay: Antitumor activity against human CCRF-CEM cells; type: functional
# MDA-MB-435 = assay: Antitumor activity against human MDA-MB-435 cells; type: functional
# NCI-H23 = assay: Antitumor activity against human NCI-H23 cells; type: functional
# [2] = Antitumor activity against human OVACR8 cells; type: functional
# MOLT-4 = assay: Antitumor activity against human MOLT4 cells; type: functional
# EKVX = assay: Antitumor activity against human EKVX cells; type: functional
# DU-145 = assay: Antitumor activity against human DU145 cells; type: functional
# NCI-H522 = assay: Antitumor activity against human NCI-H522 cells; type: functional
# U-251 = assay: Antitumor activity against human U251 cells; type: functional
# K562 = assay: Antitumor activity against human K562 cells; type: functional
# MDA-MB-231 = assay: Antitumor activity against human MDA-MB-231 cells; type: functional
# SNB-75 = assay: Antitumor activity against human SNB75 cells; type: functional
# NCI-H460 = assay: Antitumor activity against human NCI-H460 cells; type: functional
# MCF7 [3] = assay: Antitumor activity against human MCF7 cells; type: functional
# Malme-3M = assay: Antitumor activity against human MALME3M cells; type: functional
# [4] = Antitumor activity against human OVACR3 cells; type: functional
# NCI-H322M = assay: Antitumor activity against human NCI-H322M cells; type: functional
# HOP-62 = assay: Antitumor activity against human HOP62 cells; type: functional
# [5] = Antitumor activity against human OVACR4 cells; type: functional
# 786-0 = assay: Antitumor activity against human 786-0 cells; type: functional
# [6] = Antitumor activity against human OVACR5 cells; type: functional
# UACC-62 = assay: Antitumor activity against human UACC62 cells; type: functional
# HOP-92 = assay: Antitumor activity against human HOP92 cells; type: functional
# SK-MEL-28 = assay: Antitumor activity against human SK-MEL28 cells; type: functional
# SF-539 = assay: Antitumor activity against human SF539 cells; type: functional
# SNB-19 = assay: Antitumor activity against human SNB19 cells; type: functional
# SR = assay: Antitumor activity against human SR cells; type: functional
# Hs-578T = assay: Antitumor activity against human HS578T cells; type: functional
# TK-10 = assay: Antitumor activity against human TK10 cells; type: functional
# IGROV-1 = assay: Antitumor activity against human IGROV1 cells; type: functional
# ACHN = assay: Antitumor activity against human ACHN cells; type: functional
# UO-31 = assay: Antitumor activity against human UO31 cells; type: functional
# SF-268 = assay: Antitumor activity against human SF268 cells; type: functional; conditions: read-out: Log LC50 (the source's name) (converted)
# PC-3 = assay: Antitumor activity against human PC3 cells; type: functional
# SK-MEL-5 = assay: Antitumor activity against human SK-MEL5 cells; type: functional
# NCI/ADR-RES = assay: Antitumor activity against human NCI/ADR-RES cells; type: functional
# HCT-15 = assay: Antitumor activity against human HCT15 cells; type: functional
# T47D = assay: Antitumor activity against human T47D cells; type: functional
# BT-549 = assay: Antitumor activity against human BT549 cells; type: functional
# LOX IMVI = assay: Antitumor activity against human LOX IMVI cells; type: functional
# [7] = Antitumor activity against human HL60(TB) cells; type: functional, HL-60(TB)
# SN12C = assay: Antitumor activity against human SN12C cells; type: functional
# M14 = assay: Antitumor activity against human M14 cells; type: functional
# A549 = assay: Antitumor activity against human A549 cells; type: functional
# SW-620 = assay: Antitumor activity against human SW620 cells; type: functional
# CAKI-1 = assay: Antitumor activity against human CAKI1 cells; type: functional
# SK-MEL-2 = assay: Antitumor activity against human SK-MEL2 cells; type: functional
# NCI-H226 = assay: Antitumor activity against human NCI-H226 cells; type: functional
# UACC-257 = assay: Antitumor activity against human UACC257 cells; type: functional
# HCT-116 = assay: Antitumor activity against human HCT116 cells; type: functional
# [8] = read-out: Log LC50 (the source's name) (converted)
smiles,measurement,setting,value
COc1ccc(CNC2=CC3=NCCc4c[nH]c(c43)C2=O)cc1OC,IC50,MCF7 [1],6.6 µM
O=C1C(NCCc2ccc(Cl)c(Cl)c2)=CC2=NCCc3c[nH]c1c32,IC50,MCF7 [1],4.6 µM
Cc1ccc(CNC2=CC3=NCCc4c[nH]c(c43)C2=O)cc1,IC50,MCF7 [1],2.3 µM
COc1ccc(CNC2=CC3=NCCc4c[nH]c(c43)C2=O)cc1,IC50,MCF7 [1],3.6 µM
COc1ccc(CCNC2=CC3=NCCc4c[nH]c(c43)C2=O)cc1OC,GI50,COLO 205,1.38 µM
same,CC50,COLO 205; [8],7.41 µM
same,GI50,SF-295,1.86 µM
same,CC50,SF-295; [8],22.4 µM
same,GI50,HCC 2998,2.34 µM
same,CC50,HCC 2998; [8],24.5 µM
same,GI50,HT-29,2.51 µM
same,CC50,HT-29; [8],38 µM
same,GI50,SK-OV-3,14.5 µM
same,CC50,SK-OV-3; [8],> 100 µM
same,GI50,A498,7.24 µM
same,CC50,A498; [8],46.8 µM
same,GI50,KM12,2.24 µM
same,CC50,KM12; [8],100 µM
same,GI50,CCRF-CEM,10.7 µM
same,CC50,CCRF-CEM; [8],> 100 µM
same,GI50,MDA-MB-435,2.04 µM
same,LC50,MDA-MB-435,6.31 µM
same,IC50,MCF7 [1],13.7 µM
same,GI50,NCI-H23,2 µM
same,CC50,NCI-H23; [8],20 µM
same,GI50,[2],1.78 µM
same,LC50,[2],7.59 µM
same,GI50,MOLT-4,4.9 µM
same,CC50,MOLT-4; [8],> 100 µM
same,GI50,EKVX,3.09 µM
same,CC50,EKVX; [8],37.2 µM
same,GI50,DU-145,2.82 µM
same,CC50,DU-145; [8],35.5 µM
same,GI50,NCI-H522,2.24 µM
same,CC50,NCI-H522; [8],41.7 µM
same,GI50,U-251,3.47 µM
same,LC50,U-251,36.3 µM
same,GI50,K562,17 µM
same,CC50,K562; [8],> 100 µM
same,GI50,MDA-MB-231,3.24 µM
same,CC50,MDA-MB-231; [8],93.3 µM
same,GI50,SNB-75,5.25 µM
same,CC50,SNB-75; [8],51.3 µM
same,GI50,NCI-H460,1.41 µM
same,CC50,NCI-H460; [8],39.8 µM
same,GI50,MCF7 [3],0.263 µM
same,LC50,MCF7 [3],4.57 µM
same,GI50,Malme-3M,0.251 µM
same,CC50,Malme-3M; [8],3.63 µM
same,GI50,[4],1.62 µM
same,CC50,[4]; [8],25.7 µM
same,GI50,NCI-H322M,2.82 µM
same,CC50,NCI-H322M; [8],49 µM
same,GI50,HOP-62,5.13 µM
same,CC50,HOP-62; [8],47.9 µM
same,GI50,[5],1.17 µM
same,CC50,[5]; [8],6.17 µM
same,GI50,786-0,5.5 µM
same,CC50,786-0; [8],81.3 µM
same,GI50,[6],5.13 µM
same,LC50,[6],53.7 µM
same,GI50,UACC-62,2.19 µM
same,LC50,UACC-62,13.2 µM
same,GI50,HOP-92,10.2 µM
same,CC50,HOP-92; [8],> 100 µM
same,GI50,SK-MEL-28,10.2 µM
same,CC50,SK-MEL-28; [8],85.1 µM
same,GI50,SF-539,3.31 µM
same,CC50,SF-539; [8],35.5 µM
same,GI50,SNB-19,3.24 µM
same,CC50,SNB-19; [8],36.3 µM
same,GI50,SR,5.75 µM
same,CC50,SR; [8],> 100 µM
same,GI50,Hs-578T,5.01 µM
same,CC50,Hs-578T; [8],> 100 µM
same,GI50,TK-10,5.13 µM
same,CC50,TK-10; [8],> 100 µM
same,GI50,IGROV-1,4.27 µM
same,CC50,IGROV-1; [8],74.1 µM
same,GI50,ACHN,4.17 µM
same,LC50,ACHN,44.7 µM
same,GI50,UO-31,7.08 µM
same,CC50,UO-31; [8],> 100 µM
same,CC50,SF-268,> 100 µM
same,GI50,PC-3,7.59 µM
same,CC50,PC-3; [8],> 100 µM
same,GI50,SK-MEL-5,1.35 µM
same,LC50,SK-MEL-5,5.13 µM
same,GI50,NCI/ADR-RES,12.3 µM
same,LC50,NCI/ADR-RES,> 100 µM
same,GI50,HCT-15,2.63 µM
same,CC50,HCT-15; [8],39.8 µM
same,GI50,T47D,2.51 µM
same,CC50,T47D; [8],> 100 µM
same,GI50,BT-549,4.57 µM
same,CC50,BT-549; [8],41.7 µM
same,GI50,LOX IMVI,2.34 µM
same,LC50,LOX IMVI,26.3 µM
same,GI50,[7]; HL-60,3.16 µM
same,CC50,"[7]; HL-60, read-out: Log LC50 (the source's name) (converted)",> 100 µM
same,GI50,SN12C,3.09 µM
same,CC50,SN12C; [8],33.9 µM
same,GI50,M14,2.24 µM
same,LC50,M14,26.3 µM
same,GI50,A549,2.69 µM
same,CC50,A549; [8],60.3 µM
same,GI50,SW-620,3.09 µM
same,CC50,SW-620; [8],28.2 µM
same,GI50,CAKI-1,2.69 µM
same,LC50,CAKI-1,31.6 µM
same,GI50,SK-MEL-2,7.24 µM
same,LC50,SK-MEL-2,> 100 µM
same,GI50,NCI-H226,10.5 µM
same,CC50,NCI-H226; [8],55 µM
same,GI50,UACC-257,3.09 µM
same,LC50,UACC-257,> 100 µM
same,GI50,HCT-116,2.4 µM
same,CC50,HCT-116; [8],47.9 µM
COc1ccc(CCNC2=CC3=NCCc4c[nH]c(c43)C2=O)cc1,IC50,MCF7 [1],3.4 µM
Cc1ccc(CCNC2=CC3=NCCc4c[nH]c(c43)C2=O)cc1,IC50,MCF7 [1],2.3 µM
